Laboratory results from ChEMBL document CHEMBL1151144, “Annonaceous acetogenins: a review” (J Nat Prod, 1990).
In brackets after ≈: the same amount, converted by molar mass.

How the values were obtained:
[1] = Cytotoxicity against mouse 9PS cells; type: functional; details: for EC50: Mus musculus, read-out: ED50 (the source's name)
HT-29 = experiment: Cytotoxicity against human HT-29 cells; type: functional; details: for EC50: Homo sapiens, HT-29, read-out: ED50 (the source's name)
A549 = experiment: Cytotoxicity against human A549 cells; type: functional; details: for EC50: Homo sapiens, A549, read-out: ED50 (the source's name)
[2] = Cytotoxicity against human 9KB cells; type: functional; details: for EC50: Homo sapiens, 9KB, read-out: ED50 (the source's name)
[3] = Antimitotic activity in rat 9ASK cells assessed as reversal of astrocyte formation; type: functional
Artemia = experiment: Toxicity against brine shrimp; type: organism-based; details: in vivo
Plasmodium falciparum [4] = experiment: Antiplasmodial activity against chloroquine-sensitive Plasmodium falciparum D6; type: functional, organism-based
Calliphora vicina [5] = experiment: Pesticidal activity against Blowfly larvae assessed as mortality at 10000 ppm; type: functional
[6] = (§1) In vivo antitumor activity against mouse 3PS cells at 0.95 mg/kg relative to control; type: functional
Aedes aegypti = experiment: Pesticidal activity against Aedes aegypti larvae assessed as mortality at 10 ppm; type: functional
Plasmodium falciparum [7] = experiment: Antiplasmodial activity against chloroquine-sensitive Plasmodium falciparum W2; type: functional, organism-based
[8] = Antimitotic activity in rat 9ASK cells assessed as reversal of astrocyte formation at 100 ug/mL; type: functional
[9] = system: Agrobacterium tumefaciens; experiment: Antitumor activity assessed as inhibition of Agrobacterium tumefaciens-induced tumor formation by potato disk assay; type: functional
Calliphora vicina [10] = experiment: Pesticidal activity against Blowfly larvae assessed as mortality at 1% drug concentration; type: functional
[11] = as §1; type: functional; remark: listed apart in the source
L1210 [12] = experiment: In vivo antitumor activity against mouse L1210 cells at 0.4 mg/kg relative to control; type: functional
MCF7 = experiment: Cytotoxicity against human MCF7 cells; type: functional; details: for EC50: Homo sapiens, MCF7, read-out: ED50 (the source's name)
[13] = Antimitotic activity in rat 9ASK cells assessed as reversal of astrocyte formation at 10 ug/mL; type: functional
[14] = In vivo antitumor activity against mouse 3PS cells at 0.25 mg/kg relative to control; type: functional
L1210 [15] = experiment: Cytotoxicity against mouse L1210 cells; type: functional; details: read-out: ED50 (the source's name)
[16] = In vivo antitumor activity against mouse 3PS cells at 1.4 mg/kg relative to control; type: functional

Compound: CCCCCCCCCCCC[C@@H](O)[C@H]1CC[C@H]([C@H](O)CCCCC(=O)CCCCC[C@@H](O)CC2=C[C@H](C)OC2=O)O1 [ANNONACINONE]
- ED50 [1]: 1 ×10⁻⁶ ug/ml
- EC50 (HT-29): 1000 ng/mL (≈ 1.68 µM)
- EC50 (A549): 100 ng/mL (≈ 0.168 µM)

Compound: CCCCCCCCCCCC[C@@H](O)[C@H]1CC[C@H]([C@H](O)CCCC[C@H](O)CCCCC[C@@H](O)CC2=CC(C)OC2=O)O1 (stereo not given in full) [ANNONACIN]
- EC50 [2]: 1 ng/mL (≈ 0.00168 µM)
- Activity [3]: 51%
- ED50 [1]: 1 ×10⁻⁵ ug/ml
- EC50 (HT-29): 3000 ng/mL (≈ 5.03 µM)
- EC50 (A549): 1 ng/mL (≈ 0.00168 µM)
- LC50 (Artemia): 3.3 ppm
- IC50 (Plasmodium falciparum [4]): 1.3 µg/mL (≈ 2.18 µM)
- IC90 (Plasmodium falciparum [4]): 12.4 µg/mL (≈ 20.9 µM)
- Activity (Calliphora vicina [5]): 100%
- T/C [6]: 124%
- Activity (Aedes aegypti): 70%
- IC50 (Plasmodium falciparum [7]): 1.51 µg/mL (≈ 2.53 µM)
- IC90 (Plasmodium falciparum [7]): 74.7 µg/mL (≈ 125 µM)
- Activity [8]: 15%
- inhibition (INH) [9]: 72%
- Activity (Calliphora vicina [10]): 100%
- T/C [11]: 124%

Compound: CCCCCCCCCC[C@H](O)[C@H]1CC[C@H]([C@H]2CC[C@H]([C@H](O)CCCCCCCCCC[C@@H]3CC(CC(C)=O)C(=O)O3)O2)O1 (stereo not given in full) [BULLATACINONE]
- T/C (L1210 [12]): 144%
- LC50 (Artemia): 0.003 ppm
- inhibition (INH) [9]: 15%

Compound: CCCCCCCCCC[C@@H](OC(C)=O)[C@H]1CC[C@H]([C@@H](CC[C@@H](OC(C)=O)[C@@H]2CCC(CCCCCCC[C@@H](CC3=C[C@@H](C)OC3=O)OC(C)=O)O2)OC(C)=O)O1 (stereo not given in full) [BULLATALICIN TETRAACETATE]
- EC50 (MCF7): < 0.001 µg/mL
- EC50 (HT-29): 1350 ng/mL (≈ 1.67 µM)
- EC50 (A549): < 1 ng/mL

Compound: CCCCCCCCCC[C@H](O)[C@H]1CC[C@H]([C@H](O)CC[C@H](O)[C@@H]2CC[C@@H](CCCCCCC[C@@H](O)CC3=C[C@H](C)OC3=O)O2)O1 [BULLATALICIN]
- EC50 [2]: > 10000 ng/mL
- EC50 (MCF7): 2.34 µg/mL (≈ 3.66 µM)
- ED50 (HT-29): 8.8 ×10⁻⁶ ug/ml
- ED50 (A549): 2.34 ×10⁻⁷ ug/ml
- LC50 (Artemia): 0.154 ppm
- inhibition (INH) [9]: 63%

Compound: CCCC(O)CCC(O)CCC(O)C1CCC(C2CCC(C(O)CCCCCCCCCCCCCC3=CC(C)OC3=O)O2)O1 (stereo not given) [CHERIMOLINE]
- ED50 [2]: 6 ×10⁻¹² ug/ml
- EC50 [1]: < 0.01 µg/mL
- EC50 (HT-29): > 1 ng/mL
- EC50 (A549): 1 ng/mL (≈ 0.00157 µM)
- LC50 (Artemia): 1.24 ppm

Compound: CCCC(O)CCC(O)CCC(O)C1CCC(C2CCC(C(O)CCCCCCCCCCCCCC3CC(C)OC3=O)O2)O1 (stereo not given) [DIHYDROCHERIMOLINE]
- ED50 [2]: 2 ×10⁻⁸ ug/ml
- EC50 [1]: < 0.01 µg/mL
- EC50 (HT-29): 1 ng/mL (≈ 0.00156 µM)
- EC50 (A549): 1 ng/mL (≈ 0.00156 µM)
- LC50 (Artemia): 4.02 ppm

Compound: CCCCCCCCCCCC[C@@H](O)[C@H]1CC[C@H]([C@H](O)CC[C@H](O)[C@@H]2CC[C@@H](CCCCC[C@@H](O)CC3=C[C@H](C)OC3=O)O2)O1 [GIGANTECIN]
- ED50 [2]: <1 ×10⁻⁵ ug/ml
- ED50 (MCF7): 4.11 ×10⁻⁹ ug/ml
- ED50 [1]: <1 ×10⁻⁵ ug/ml
- ED50 (HT-29): 2.68 ×10⁻⁴ ug/ml
- ED50 (A549): 2.19 ×10⁻⁷ ug/ml
- LC50 (Artemia): 222 ppm
- inhibition (INH) [9]: 83%
- Activity [13]: 31%

Compound: CCCCCCCCCCCCCC[C@@H](O)[C@H]1CC[C@H]([C@H](O)CC[C@H](O)CCCCC[C@@H](O)CC2=C[C@H](C)OC2=O)O1 [GONIOTHALAMICIN]
- EC50 [2]: < 10 ng/mL
- EC50 [1]: < 0.1 µg/mL
- LC50 (Artemia): 37 ppm
- IC50 (Plasmodium falciparum [4]): 1.08 µg/mL (≈ 1.82 µM)
- IC90 (Plasmodium falciparum [4]): 8.23 µg/mL (≈ 13.8 µM)
- Activity (Calliphora vicina [5]): 100%
- Activity (Aedes aegypti): 100%
- IC50 (Plasmodium falciparum [7]): 1.59 µg/mL (≈ 2.66 µM)
- IC90 (Plasmodium falciparum [7]): 23.6 µg/mL (≈ 39.6 µM)
- inhibition (INH) [9]: 68%

Compound: CCCCCCCCCCCC[C@H](O)[C@@H]1CC[C@@H]([C@@H](O)CCCCC(=O)CCCCCC2CC(CC(C)=O)C(=O)O2)O1 (stereo not given in full) [ISOANNONACINONE]
- EC50 [1]: 0.5 µg/mL (≈ 0.841 µM)
- EC50 (HT-29): 9 ng/mL (≈ 0.0151 µM)
- EC50 (A549): 70 ng/mL (≈ 0.118 µM)

Compound: CCCCCCCCCCCC[C@H](O)[C@@H]1CC[C@@H]([C@@H](O)CCCCC(O)CCCCCC2CC(CC(C)=O)C(=O)O2)O1 (stereo not given in full) [ISOANNONACIN]
- EC50 [1]: 3 µg/mL (≈ 5.03 µM)
- EC50 (HT-29): 2 ng/mL (≈ 0.00335 µM)
- EC50 (A549): 20 ng/mL (≈ 0.0335 µM)

Compound: CCCCCCC(O)CCCC(O)C1CCC(C2CCC(C(O)CCCCCCCCCCCCC3=CC(C)OC3=O)O2)O1 (stereo not given) [ISOROLLINICIN]
- EC50 [1]: 0.01 µg/mL (≈ 0.0161 µM)

Compound: CCCCCCCCCC[C@@H](O)[C@@H]1CC[C@H]([C@H]2CC[C@@H]([C@@H](O)CCCCCCCCCC[C@H](O)CC3=C[C@@H](C)OC3=O)O2)O1 [ROLLINIASTATIN 1]
- ED50 [1]: 4.5 ×10⁻⁵ ug/ml
- T/C [14]: 128%

Compound: CCCCCCCCC[C@@H](OC(C)=O)[C@H](OC(C)=O)[C@@H]1CC[C@@H]([C@@H]2CC[C@@H]([C@@H](CCCCCCCCCCCCC3=CC(C)OC3=O)OC(C)=O)O2)O1 (stereo not given in full) [ROLLINICIN TRIACETATE]
- ED50 [1]: 2.6 ×10⁻⁴ ug/ml

Compound: CCCCCCCCC[C@@H](O)[C@@H](O)[C@@H]1CC[C@@H]([C@@H]2CC[C@@H]([C@@H](O)CCCCCCCCCCCCC3=CC(C)OC3=O)O2)O1 (stereo not given in full) [ROLLINICIN]
- ED50 [1]: 2.9 ×10⁻⁸ ug/ml

Compound: CCCCCC[C@H](O)CCC[C@H](O)[C@H]1CC[C@H]([C@H]2CC[C@H]([C@H](O)CCCCCCCCCCCCC3=C[C@H](C)OC3=O)O2)O1 [SQUAMOCIN]
- EC50 (L1210 [15]): 0.58 µg/mL (≈ 0.931 µM)

Compound: CCCCCCCCCCCC[C@H](O)[C@@H]1CC[C@@H]([C@@H](O)CCCCCC(=O)CCCCC2CC(CC(C)=O)C(=O)O2)O1 (stereo not given in full) [SQUAMONE]
- LC50 (Artemia): 2.1 ppm

Compound: CCCCCCCCCC[C@@H](O)[C@@H]1CC[C@H]([C@H](O)CC[C@H](O)[C@@H]2CC[C@@H](CCCCCCC[C@@H](O)CC3=C[C@H](C)OC3=O)O2)O1 [SYLVATICIN]
- EC50 [2]: < 1 ng/mL
- EC50 (HT-29): < 1 ng/mL
- EC50 (A549): < 1 ng/mL
- LC50 (Artemia): 26 ppm

Compound: CN(C)[C@@H]1C(O)=C(C(N)=O)C(=O)[C@@]2(O)C(O)=C3C(=O)c4c(O)cccc4[C@@](C)(O)[C@H]3C[C@@H]12 [TETRACYCLINE]
- IC50 (Plasmodium falciparum [4]): 3.36 µg/mL (≈ 7.57 µM)
- IC50 (Plasmodium falciparum [7]): 5.39 µg/mL (≈ 12.1 µM)

Compound: CCCCCCCCCC[C@H](OC(C)=O)[C@H]1CC[C@H]([C@H]2CC[C@H]([C@H](O)CCCCCCCCCCCCC3=C[C@H](C)OC3=O)O2)O1 [UVARICIN]
- T/C [16]: 157%
